# According to US10039740B2, “Therapeutic combinations of sesquiterpenes and flavonoids” (Primus Pharmaceuticals, Inc., priority 2015, dated 2018):
# Key:
# RAW267.4 cells [1] = assay: Cell proliferation of RAW267.4 cells (cell counting); type: cell-based, mouse; settings: cultured 3 days; for proliferation of RAW267.4 cells: p<0.001 vs control; for effect on RAW267.4 cells (proliferation): 1, 10, 50, 100, and 200 μg/ml, FIG. 4, FIG. 5
# Protocol: Various experiments were conducted to determine effects of various active ingredients on RAW 267.4 in vitro. RAW267.4 cells refer to a mouse macrophage that produces various inflammatory cytokines including TNF-α and IL-1β. RAW267.4 cells may be prepared as 1×10^5/ml per well. These cells were cultured using a 24-well plate in DMEM containing 10% FBS and 1% P/S for 1, 2, 3 or 7 days in a water-saturated atmosphere containing 5% CO2 and 95% air at 37° C. RAW267.4 cells were cultured DMEM containing 10% FBS and 1% P/S in the presence of β-caryophyllene [1 (5 μM), 10, 50, 100 or 200 μg/ml of medium], baicalin [1 (2.24 μM), 10, 50, 100 or 200 μg/ml of medium], (+)-catechin [1 (3.45 μM), 10, 50, 100 or 200 μg/ml of medium], curcumin [1 (2.72 μM), 10, 50, 100 or 200 μg/ml of medium], or (+)-aromatic turmerone [1 (4.62 μM), 5, 10, 25 or 50 μg/ml of medium] for 3 days. After culture, cells were detached from each culture dish and counted. After trypsinization of each culture dish using 0.2% […] plus 0.02% EDTA in Ca^2+/Mg^2+-free PBS for 2 min at 37° C., detached cells from the dish were collected after centrifugation. Cells were resuspended in PBS solution and stained with eosin. Cell numbers were counted under a microscope using a Hemocytometer plate. Each dish was counted twice, and an average of two counts was calculated. Cell number was shown as number per well of plate. Statistical significance was determined using GraphPad InStat version 3 for Windows XP (GraphPad Software Inc. La Jolla, Calif.). Multiple comparisons were performed by one-way analysis of variance (ANOVA) with Tukey-Kramer multiple comparisons post test for parametric data as indicated. P<0.05 was considered statistically significant. The cells were cultured for 3 days in the presence of one or more various compounds to determine their anti-inflammatory effects.
# RAW267.4 cells [2] = assay: Cell death of RAW267.4 cells (cell number after confluence); type: cell-based, mouse; settings: for death of RAW267.4 cells in vitro: conclusion from the cell death experiments
# Protocol: RAW267.4 cells (1×10^5/ml per well) were cultured using a 24-well plate in DMEM containing 10% FBS and 1% P/S for 3 days until reaching confluence, and then the cells were cultured another for 2 days in the presence or absence of β-caryophyllene (1 or 10 μg/ml of medium) and/or baicalin or (+)-catechin (1 or 10 μg/ml of medium). After culture, cells were detached from each culture dish. After trypsinization of each culture dish using 0.2% […] plus 0.02% EDTA in Ca^2+/Mg^2+-free PBS for 2 min at 37° C., detached cells from the dish were collected after centrifugation. Cells were resuspended in PBS solution and stained with eosin. Cell numbers were counted under a microscope using a Hemocytometer plate. Each dish was counted twice, and an average of two counts was calculated. Cell number was shown as number per well of plate. Statistical significance was determined using GraphPad InStat version 3 for Windows XP (GraphPad Software Inc. La Jolla, Calif.). Multiple comparisons were performed by one-way analysis of variance (ANOVA) with Tukey-Kramer multiple comparisons post test for parametric data as indicated. P<0.05 was considered statistically significant.
Compound,effect on RAW267.4 cells (proliferation) (RAW267.4 cells [1]),death of RAW267.4 cells in vitro (RAW267.4 cells [2]),further results
"CC(C)=CC(=O)C[C@H](C)c1ccc(C)cc1 [(+)-aromatic turmerone, reference compound]",,,"proliferation of RAW267.4 cells (RAW267.4 cells [1]; 25 and 50 μg/ml, FIG. 3): significantly increased"
Oc1cc(O)c2c(c1)O[C@H](c1ccc(O)c(O)c1)[C@@H](O)C2 [(+)-catechin],did not result in a significant effect,do not have significant effects,
O=C(O)[C@H]1O[C@@H](Oc2cc3oc(-c4ccccc4)cc(=O)c3c(O)c2O)[C@H](O)[C@@H](O)[C@@H]1O [baicalin],did not result in a significant effect,do not have significant effects,
"COc1cc(/C=C/C(=O)CC(=O)/C=C/c2ccc(O)c(OC)c2)ccc1O [curcumin, reference compound]",,,"proliferation of RAW267.4 cells (RAW267.4 cells [1]; 100 and 200 μg/ml, FIG. 2): suppressed"
C=C1CC/C=C(\C)CC[C@@H]2[C@@H]1CC2(C)C [β-caryophyllene],,do not have significant effects,"suppressive effect on cell proliferation (RAW267.4 cells [1]; 1 or 10 μg/ml of each compound, FIG. 6, 7, 8, 10): did not result any significant suppressive effect; proliferation of RAW267.4 cells (RAW267.4 cells [1]; 50, 100, and 200 μg/ml of medium, FIG. 1): suppressed; number of RAW267.4 cells (cell death) (RAW267.4 cells [2]; 3 days without chemicals, then 2 days with compound(s) at about 1 or 10 μg/ml of medium, FIG. 13): did not induce a significant decrease"
